This note sets out measurements from patent publication US20150099802A1, “SELECTIVE TUMOR TREATMENT” (SUCAMPO AG, priority 2013, published 2015).

Structures are written as SMILES.

Assay type in all cases: cell-based
Experiment [1] deals with hPGDH-transfected colon adenocarcinoma LS174T cells. In words: Growth of hPGDH-transfected LS174T colon adenocarcinoma cells (cell counting). The settings on record: 100 nM lubiprostone, fresh every 24 hr, cells counted at 0-96 hr, FIG. 1B. How it is done: (§1) Approximately half of colon cancers have a low level of NAD^+-linked 15-hydroxyprostaglandin dehydrogenase (NAD^+-15-PGDH). It was tested whether lubiprostone affected the growth of LS174T colon […] cells, which are known to have a low level of 15-PGDH. LS174T cells (ATCC #CL-188) were grown in Eagle's Minimum Essential Medium (ATCC #30-2003) containing 10% Fetal Bovine Serum (ATCC #30-2020) at 37° C. Human PGDH (hPGDH) was expressed in LS174T cells using pCMV6-Entry Vector. Both the human cDNA clone (#RC204160) and the Precision shuttle vector (#PS100001) were from OriGene Technologies, Rockville, Md. LS174T cells were transfected with hPGDH cDNA using Lipofectamine and selected using G418 (200 μg/ml). LS174T cells±hPGDH (+hPGDH or + vector alone, mock) were grown in 35 mm petri dishes (0.5×10^4 cells/dish) in triplicate. Confluent non-transfected cells were plated in 6 well dishes (1×10^4 cells/well) in triplicate. Cultures were grown to 40% confluence and were then treated with either 0.1% EtOH-0.01% DMSO or 100 nM lubiprostone. Media were changed and fresh EtOH-DMSO or lubiprostone was added every 24 hr. Cell growth was monitored by directly counting the cells in a randomly chosen field using a cell cytometer at 0, 24, 48, 72 and 96 hr.

Experiment [2] relates to Mock-transfected colon adenocarcinoma LS174T cells. The experiment is described as follows: Growth of mock-transfected LS174T colon adenocarcinoma cells (cell counting). The settings on record: 100 nM lubiprostone, fresh every 24 hr; cells counted at 0-96 hr; vector-alone (mock) LS174T cells; FIG. 1C. How it is done: as §1
For experiment [3], the system named is Non-transfected colon adenocarcinoma LS174T cells. In words: Growth of non-transfected LS174T colon adenocarcinoma cells (cell counting). The settings on record: 100 nM lubiprostone, fresh every 24 hr; cells counted at 0, 24, 48, 72 and 96 hr; non-transfected cells (low 15-PGDH); FIG. 1A. How it is done:
as §1

For `CCCCC(F)(F)[C@@]1(O)CC[C@H]2[C@@H](CC(=O)[C@@H]2CCCCCCC(=O)O)O1` [lubiprostone, (−)-7-[(2R,4aR,5R,7aR)-2-(1,1-difluoropentyl)-2-hydroxy-6-oxooctahydrocyclopenta[b]pyran-5-yl]heptanoic acid], the “lubiprostone inhibition of cell growth after transfection with 15-OH PGDH” value in experiment [1] was “prevented lubiprostone inhibition of cell growth”. In addition, in experiment [2], the “effect of mock transfection on lubiprostone inhibition of cell growth” value was “Mock transfection had no effect”. In experiment [3], the LS174T cell growth result is on record as “slowed or stopped”.
